Data published in ChEMBL document CHEMBL1772973, “Design, synthesis, radiolabeling, and in vitro and in vivo evaluation of bridgehead iodinated analogues of N-{2-[4-(2-methoxyphenyl)piperazin-1-yl]ethyl}-N-(pyridin-2-yl)cyclohexanecarboxamide (WAY-100635) as potential SPECT ligands for the 5-HT1A receptor” (J Med Chem, 2011).

Assays:
[1] = target: T1, 5-hydroxytryptamine receptor 1A (Homo sapiens, UniProt P08908); assay: biochemical
T1 sequence (P08908 whole entry): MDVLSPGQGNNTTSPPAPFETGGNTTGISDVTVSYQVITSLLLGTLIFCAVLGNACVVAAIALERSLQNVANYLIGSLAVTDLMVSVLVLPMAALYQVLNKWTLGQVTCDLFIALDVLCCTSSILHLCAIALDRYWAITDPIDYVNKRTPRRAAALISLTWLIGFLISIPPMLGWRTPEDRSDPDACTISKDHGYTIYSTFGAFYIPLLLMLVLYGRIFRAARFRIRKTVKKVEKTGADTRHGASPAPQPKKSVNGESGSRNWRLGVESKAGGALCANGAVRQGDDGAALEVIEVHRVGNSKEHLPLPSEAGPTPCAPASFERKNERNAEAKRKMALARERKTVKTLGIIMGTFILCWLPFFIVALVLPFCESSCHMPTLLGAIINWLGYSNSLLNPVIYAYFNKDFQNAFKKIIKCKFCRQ
Description: Displacement of [3H]8-OH-DPAT from human cloned 5HT1A receptor expressed in HEK293 EBNA cells after 1 hr by liquid scintillation counting

[2] = target: 5-hydroxytryptamine receptor 1B (Homo sapiens, UniProt P28222)
physchem = conditions: octanol/water, pH 7.4
[3] = target: T2, Alpha-1B adrenergic receptor (Homo sapiens, UniProt P35368)
T2 sequence (P35368 whole entry): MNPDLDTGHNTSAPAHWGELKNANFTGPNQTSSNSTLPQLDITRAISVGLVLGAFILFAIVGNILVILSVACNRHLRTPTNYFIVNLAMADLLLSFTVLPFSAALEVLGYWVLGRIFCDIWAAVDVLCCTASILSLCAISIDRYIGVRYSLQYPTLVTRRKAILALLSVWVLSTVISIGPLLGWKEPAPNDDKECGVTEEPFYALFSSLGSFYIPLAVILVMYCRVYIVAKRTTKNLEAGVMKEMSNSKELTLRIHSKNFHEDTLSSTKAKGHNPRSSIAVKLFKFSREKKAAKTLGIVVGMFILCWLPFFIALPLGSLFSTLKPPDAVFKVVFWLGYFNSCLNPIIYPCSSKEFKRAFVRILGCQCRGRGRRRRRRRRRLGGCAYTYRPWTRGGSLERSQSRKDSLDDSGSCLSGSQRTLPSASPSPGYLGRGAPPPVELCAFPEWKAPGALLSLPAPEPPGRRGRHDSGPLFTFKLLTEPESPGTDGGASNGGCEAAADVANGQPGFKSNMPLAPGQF
Description: Inhibition of adrenergic Alpha-1B receptor

D(4) dopamine receptor = target: T3, D(4) dopamine receptor (Homo sapiens, UniProt P21917)
T3 sequence (P21917 whole entry): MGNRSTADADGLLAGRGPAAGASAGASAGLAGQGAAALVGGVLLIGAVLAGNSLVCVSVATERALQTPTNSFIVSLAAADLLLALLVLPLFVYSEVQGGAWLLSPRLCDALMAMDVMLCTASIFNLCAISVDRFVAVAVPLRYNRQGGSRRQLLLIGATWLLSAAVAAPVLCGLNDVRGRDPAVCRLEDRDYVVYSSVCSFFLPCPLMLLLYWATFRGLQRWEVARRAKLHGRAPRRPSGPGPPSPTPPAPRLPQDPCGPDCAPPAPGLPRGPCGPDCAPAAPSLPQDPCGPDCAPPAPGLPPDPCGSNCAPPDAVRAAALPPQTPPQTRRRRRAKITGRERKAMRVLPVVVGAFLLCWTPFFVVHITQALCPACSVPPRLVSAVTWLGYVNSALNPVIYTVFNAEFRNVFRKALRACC
Description: Inhibition of dopamine D4 receptor

[4] = target: T4, Alpha-1A adrenergic receptor (Homo sapiens, UniProt P35348)
T4 sequence (P35348 whole entry): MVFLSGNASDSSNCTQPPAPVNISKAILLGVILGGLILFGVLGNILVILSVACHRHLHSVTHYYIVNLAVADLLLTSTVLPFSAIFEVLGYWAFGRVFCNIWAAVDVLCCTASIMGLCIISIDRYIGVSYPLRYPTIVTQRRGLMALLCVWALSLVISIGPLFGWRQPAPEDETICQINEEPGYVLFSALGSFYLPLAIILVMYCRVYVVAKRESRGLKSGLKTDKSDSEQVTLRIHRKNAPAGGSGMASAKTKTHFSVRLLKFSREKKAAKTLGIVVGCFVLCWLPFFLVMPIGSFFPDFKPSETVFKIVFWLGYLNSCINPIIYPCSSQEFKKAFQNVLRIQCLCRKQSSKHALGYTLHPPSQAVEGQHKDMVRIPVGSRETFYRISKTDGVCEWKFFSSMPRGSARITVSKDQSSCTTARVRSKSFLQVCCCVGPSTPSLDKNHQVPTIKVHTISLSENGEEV
Description: Inhibition of adrenergic alpha1A receptor

[5] = target: T1, 5-hydroxytryptamine receptor 1A
[6] = target: 5-hydroxytryptamine receptor 7 (Homo sapiens, UniProt P34969)
[7] = target: T5, Alpha-1D adrenergic receptor (Homo sapiens, UniProt P25100)
T5 sequence (P25100 whole entry): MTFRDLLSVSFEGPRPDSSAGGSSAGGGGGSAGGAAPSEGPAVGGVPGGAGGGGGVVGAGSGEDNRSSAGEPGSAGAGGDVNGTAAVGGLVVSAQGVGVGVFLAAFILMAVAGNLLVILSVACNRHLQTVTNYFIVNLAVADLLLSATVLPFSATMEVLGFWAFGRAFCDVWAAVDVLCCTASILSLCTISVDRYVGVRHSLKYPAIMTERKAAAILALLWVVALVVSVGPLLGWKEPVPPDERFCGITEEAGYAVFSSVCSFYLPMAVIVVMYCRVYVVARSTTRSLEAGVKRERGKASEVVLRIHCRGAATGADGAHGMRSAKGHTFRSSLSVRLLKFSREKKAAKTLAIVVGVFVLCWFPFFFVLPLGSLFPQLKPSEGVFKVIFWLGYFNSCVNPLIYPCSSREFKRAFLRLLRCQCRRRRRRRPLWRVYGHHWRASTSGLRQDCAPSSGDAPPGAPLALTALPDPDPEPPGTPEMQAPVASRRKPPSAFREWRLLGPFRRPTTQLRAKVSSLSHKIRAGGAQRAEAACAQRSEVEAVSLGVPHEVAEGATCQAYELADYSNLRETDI
Description: Inhibition of adrenergic Alpha-1D receptor

Lung [8] = assay: Biodistribution in Wistar rat lung at 7 MBq, iv after 45 mins; assay type: ADME, organism-based; conditions: in vivo, 0.75 h
Blood [9] = assay: Biodistribution in Wistar rat blood at 7 MBq, iv after 45 mins; assay type: ADME, organism-based; conditions: in vivo, 0.75 h
Nucleic Acid [10] = assay: Ratio of drug level in cerebellum to occipital cortex in Wistar rat at 7 MBq, iv after 45 mins; assay type: ADME, organism-based; conditions: in vivo, 0.75 h
Heart [11] = assay: Biodistribution in Wistar rat heart at 7 MBq, iv after 45 mins; assay type: ADME, organism-based; conditions: in vivo, 0.75 h
Striatum [12] = assay: Biodistribution in Wistar rat striatum at 7 MBq, iv after 45 mins; assay type: ADME, organism-based; conditions: in vivo, 0.75 h
Liver [13] = assay: Biodistribution in non-labeled WAY-100635 ptretreated Wistar rat liver at 7 MBq, iv after 45 mins; assay type: ADME, organism-based; conditions: in vivo, 0.75 h
Cerebellum [14] = assay: Biodistribution in Wistar rat cerebellum at 7 MBq, iv after 45 mins; assay type: ADME, organism-based; conditions: in vivo, 0.75 h
Nucleic Acid [15] = assay: Ratio of drug level in cerebellum to hippocampus in Wistar rat at 7 MBq, iv after 45 mins; assay type: ADME, organism-based; conditions: in vivo, 0.75 h
Liver [16] = assay: Biodistribution in Wistar rat liver at 7 MBq, iv after 45 mins; assay type: ADME, organism-based; conditions: in vivo, 0.75 h
Occipital cortex [17] = assay: Biodistribution in non-labeled WAY-100635 ptretreated Wistar rat occipital cortex at 7 MBq, iv after 45 mins; assay type: ADME, organism-based; conditions: in vivo, 0.75 h
Nucleic Acid [18] = assay: Ratio of drug level in cerebellum to frontal cortex in Wistar rat at 7 MBq, iv after 45 mins; assay type: ADME, organism-based; conditions: in vivo, 0.75 h
Heart [19] = assay: Biodistribution in non-labeled WAY-100635 ptretreated Wistar rat heart at 7 MBq, iv after 45 mins; assay type: ADME, organism-based; conditions: in vivo, 0.75 h
Nucleic Acid [20] = assay: Ratio of drug level in cerebellum to striatum in Wistar rat at 7 MBq, iv after 45 mins; assay type: ADME, organism-based; conditions: in vivo, 0.75 h
Striatum [21] = assay: Biodistribution in non-labeled WAY-100635 ptretreated Wistar rat striatum at 7 MBq, iv after 45 mins; assay type: ADME, organism-based; conditions: in vivo, 0.75 h
Lung [22] = assay: Biodistribution in non-labeled WAY-100635 ptretreated Wistar rat lung at 7 MBq, iv after 45 mins; assay type: ADME, organism-based; conditions: in vivo, 0.75 h
Rattus norvegicus [23] = assay: Biodistribution in non-labeled WAY-100635 ptretreated Wistar rat frontal cortex at 7 MBq, iv after 45 mins; assay type: ADME, organism-based; conditions: in vivo, 0.75 h
Kidney [24] = assay: Biodistribution in non-labeled WAY-100635 ptretreated Wistar rat kidney at 7 MBq, iv after 45 mins; assay type: ADME, organism-based; conditions: in vivo, 0.75 h
Kidney [25] = assay: Biodistribution in Wistar rat kidney at 7 MBq, iv after 45 mins; assay type: ADME, organism-based; conditions: in vivo, 0.75 h
Rattus norvegicus [26] = assay: Biodistribution in Wistar rat frontal cortex at 7 MBq, iv after 45 mins; assay type: ADME, organism-based; conditions: in vivo, 0.75 h
Hippocampus [27] = assay: Biodistribution in non-labeled WAY-100635 ptretreated Wistar rat hippocampus at 7 MBq, iv after 45 mins; assay type: ADME, organism-based; conditions: in vivo, 0.75 h
Blood [28] = assay: Biodistribution in non-labeled WAY-100635 ptretreated Wistar rat blood at 7 MBq, iv after 45 mins; assay type: ADME, organism-based; conditions: in vivo, 0.75 h
Rattus norvegicus [29] = assay: Biodistribution in Wistar rat rest cortex at 7 MBq, iv after 45 mins; assay type: ADME, organism-based; conditions: in vivo, 0.75 h
Hippocampus [30] = assay: Biodistribution in Wistar rat hippocampus at 7 MBq, iv after 45 mins; assay type: ADME, organism-based; conditions: in vivo, 0.75 h
Cerebellum [31] = assay: Biodistribution in non-labeled WAY-100635 ptretreated Wistar rat cerebellum at 7 MBq, iv after 45 mins; assay type: ADME, organism-based; conditions: in vivo, 0.75 h
Occipital cortex [32] = assay: Biodistribution in Wistar rat occipital cortex at 7 MBq, iv after 45 mins; assay type: ADME, organism-based; conditions: in vivo, 0.75 h
Rattus norvegicus [33] = assay: Biodistribution in non-labeled WAY-100635 ptretreated Wistar rat rest cortex at 7 MBq, iv after 45 mins; assay type: ADME, organism-based; conditions: in vivo, 0.75 h
Thyroid gland = assay: Biodistribution in non-labeled WAY-100635 ptretreated Wistar rat thyroid assessed per organ at 7 MBq, iv after 45 mins; assay type: ADME, organism-based; conditions: in vivo, 0.75 h

5-hydroxytryptamine receptor 1B, sequence (P28222 whole entry): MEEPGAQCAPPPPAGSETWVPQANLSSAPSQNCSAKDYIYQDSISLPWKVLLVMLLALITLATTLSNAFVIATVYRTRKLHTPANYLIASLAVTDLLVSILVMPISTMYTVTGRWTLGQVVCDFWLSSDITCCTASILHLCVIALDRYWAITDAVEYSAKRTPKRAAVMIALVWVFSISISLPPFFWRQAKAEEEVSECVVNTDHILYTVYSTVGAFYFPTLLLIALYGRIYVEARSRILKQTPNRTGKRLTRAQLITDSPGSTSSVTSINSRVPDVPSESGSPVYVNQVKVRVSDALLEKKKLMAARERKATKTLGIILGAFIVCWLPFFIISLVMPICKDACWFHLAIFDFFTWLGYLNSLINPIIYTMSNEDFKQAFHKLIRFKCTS
5-hydroxytryptamine receptor 7, sequence (P34969 whole entry): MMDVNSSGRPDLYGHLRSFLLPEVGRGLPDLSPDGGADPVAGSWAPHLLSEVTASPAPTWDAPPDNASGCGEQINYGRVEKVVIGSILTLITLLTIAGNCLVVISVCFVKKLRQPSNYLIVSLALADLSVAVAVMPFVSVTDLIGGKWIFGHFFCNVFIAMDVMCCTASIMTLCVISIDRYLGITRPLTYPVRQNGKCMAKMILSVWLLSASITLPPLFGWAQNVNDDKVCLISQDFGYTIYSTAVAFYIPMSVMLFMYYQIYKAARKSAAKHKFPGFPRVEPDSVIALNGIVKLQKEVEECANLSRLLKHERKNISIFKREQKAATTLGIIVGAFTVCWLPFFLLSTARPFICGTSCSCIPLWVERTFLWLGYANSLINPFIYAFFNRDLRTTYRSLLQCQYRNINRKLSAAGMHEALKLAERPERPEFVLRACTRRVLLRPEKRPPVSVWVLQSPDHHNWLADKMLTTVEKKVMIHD

O=C(N(CCN1CCN(c2ccccc2O)CC1)c1ccccn1)C12CCC(I)(CC1)CC2
IC50 [1]: 4.57 nM
Ki [1]: 1.95 nM

O=C(N(CCN1CCN(c2ccccc2O)CC1)c1ccccn1)C12CCC(I)(CC1)C2
IC50 [1]: 1.19 nM
Ki [1]: 0.47 nM

O=C(N(CCN1CCN(c2ccccc2O)CC1)c1ccccn1)C12CC3CC(C1)C(I)C(C3)C2 (stereo unspecified)
IC50 [1]: 3.95 nM
Ki [1]: 1.68 nM

COc1ccccc1N1CCN(CCN(C(=O)C23C4C5C2C2C3C4C52I)c2ccccn2)CC1 (stereo unspecified)
Ki [2]: 121 nM
logD (physchem): 4.14
Ki [3]: 185 nM
Ki (D(4) dopamine receptor): 329 nM
Ki [4]: 78 nM
IC50 [1]: 2.59 nM
Ki [1]: 1.11 nM
Ki [5]: 2.2 nM
Ki [6]: 161 nM
Ki [7]: 98 nM

O=C(N(CCN1CCN(c2ccccc2O)CC1)c1ccccn1)C12C3C4C1C1C2C3C41I (stereo unspecified)
Ki [2]: 272 nM
logD (physchem): 4.03
Ki [3]: 25 nM
Ki (D(4) dopamine receptor): 890 nM
Ki [4]: 176 nM
IC50 [1]: 1.5 nM
Ki [1]: 0.64 nM
Ki [5]: 1.4 nM
Ki [6]: 50 nM
Ki [7]: 181 nM

O=C(C1CCCCC1)N(CCN1CCN(c2ccccc2O)CC1)c1ccccn1
IC50 [1]: 0.77 nM
Ki [1]: 0.33 nM

COc1ccccc1N1CCN(CCN(C(=O)C23CC4CC(CC(I)(C4)C2)C3)c2ccccn2)CC1
IC50 [1]: 5.04 nM
Ki [1]: 2.15 nM

COc1ccccc1N1CCN(CCN(C(=O)C23CCC(I)(CC2)C3)c2ccccn2)CC1
IC50 [1]: 2.02 nM
Ki [1]: 0.87 nM

COc1ccccc1N1CCN(CCN(C(=O)C23CCC(I)(CC2)CC3)c2ccccn2)CC1
IC50 [1]: 2.61 nM
Ki [1]: 1.11 nM

COc1ccccc1N1CCN(CCN(C(=O)C23C4C5C2C2C3C4C52[123I])c2ccccn2)CC1 (stereo unspecified)
Drug uptake (Lung [8]): 0.28 % ID/g
Drug uptake (Blood [9]): 0.24 % ID/g
Ratio (Nucleic Acid [10]): 1.21
Drug uptake (Heart [11]): 0.16 % ID/g
Drug uptake (Striatum [12]): 0.04 % ID/g
Drug uptake (Liver [13]): 2.77 % ID/g
Drug uptake (Cerebellum [14]): 0.05 % ID/g
Ratio (Nucleic Acid [15]): 2.51
Drug uptake (Liver [16]): 2.34 % ID/g
Drug uptake (Occipital cortex [17]): 0.05 % ID/g
Ratio (Nucleic Acid [18]): 1.16
Drug uptake (Heart [19]): 0.2 % ID/g
Ratio (Nucleic Acid [20]): 0.91
Drug uptake (Striatum [21]): 0.04 % ID/g
Drug uptake (Lung [22]): 0.31 % ID/g
Drug uptake (Rattus norvegicus [23]): 0.05 % ID/g
Drug uptake (Kidney [24]): 1.32 % ID/g
Drug uptake (Kidney [25]): 1.37 % ID/g
Drug uptake (Rattus norvegicus [26]): 0.06 %ID
Drug uptake (Hippocampus [27]): 0.06 % ID/g
Drug uptake (Blood [28]): 0.33 % ID/g
Drug uptake (Rattus norvegicus [29]): 0.05 % ID/g
Drug uptake (Hippocampus [30]): 0.1 % ID/g
Drug uptake (Cerebellum [31]): 0.05 % ID/g
Drug uptake (Occipital cortex [32]): 0.06 % ID/g
Drug uptake (Rattus norvegicus [33]): 0.04 % ID/g
Drug uptake (Thyroid gland): 0.01 %ID
